Measured values as given in ChEMBL document CHEMBL1201862, “PubChem BioAssay data set” (2004).
Values belong to the compound of their own block, whether it stands above or below them. The source made the active and inactive calls.

Assays:
[1] = C. albicans growth with fluconazole, confirmation, fluorescence, retest (AID 2467); assay type: functional, cell-based
[2] = cytotoxicity in MIN6 insulinoma cells, dose response, cytotoxicity control, cell-based, mouse insulinoma (AID 2122); assay type: functional;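 note: confirmatory high-throughput counterscreen run to flag cytotoxic compounds; mouse MIN-6 beta cells carrying an insulin promoter eGFP reporter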
[3] = target: T1, Serine/threonine-protein phosphatase (Candida dubliniensis (strain CD36 / CBS 7987 / NCPF 3949 / NRRLY-17841) (Yeast), UniProt B9W6M3); assay: calcineurin pathway inhibitors in yeast reporter, dose response, S. cerevisiae, CDRE-lacZ, luminescence, secondary (AID 2388); assay type: functional, cell-based;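 note: yeast reporter cells carrying a calcineurin-responsive lacZ construct stimulated with calcium chloride; luminescent beta-galactosidase reporter signal in whole cells rather than isolated phosphatase activity; potency for inhibition where a drop in reporter signal means calcineurin blockade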
T1 sequence (B9W6M3 whole entry): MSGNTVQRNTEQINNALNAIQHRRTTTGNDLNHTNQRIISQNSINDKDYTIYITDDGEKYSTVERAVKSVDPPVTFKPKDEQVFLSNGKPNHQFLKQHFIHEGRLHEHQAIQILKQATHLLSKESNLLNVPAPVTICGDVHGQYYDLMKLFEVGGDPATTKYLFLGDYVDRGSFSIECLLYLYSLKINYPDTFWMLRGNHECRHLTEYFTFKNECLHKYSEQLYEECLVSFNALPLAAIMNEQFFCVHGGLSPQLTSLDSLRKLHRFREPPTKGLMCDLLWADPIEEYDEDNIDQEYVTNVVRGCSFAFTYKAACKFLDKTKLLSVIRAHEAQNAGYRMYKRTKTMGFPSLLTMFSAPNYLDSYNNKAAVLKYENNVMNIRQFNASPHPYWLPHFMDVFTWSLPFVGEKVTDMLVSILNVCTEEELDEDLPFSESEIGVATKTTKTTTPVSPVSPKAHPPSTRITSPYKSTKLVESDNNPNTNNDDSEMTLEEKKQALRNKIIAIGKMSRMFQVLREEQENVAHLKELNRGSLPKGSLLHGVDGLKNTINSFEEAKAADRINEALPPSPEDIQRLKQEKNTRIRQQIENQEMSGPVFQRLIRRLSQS

[4] = insulin promoter down-regulators in MIN6 cells, imaging, high-content screening, mouse beta cells (AID 1628); assay type: functional
[5] = target: ATP-dependent molecular chaperone HSP82 (Candida albicans (strain WO-1) (Yeast), UniProt C4YTQ8); assay: loss of DOC-induced GRE-beta-galactosidase reporter signal, dose response, Hsp90 inhibitor project, S. cerevisiae, luminescence (AID 2400); assay type: functional, cell-based;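 note: beta-galactosidase luminescence from glucocorticoid response element reporter as proxy for Hsp90 function; inhibitor potency where signal loss means Hsp90 inhibition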
INS1 = assay: beta cell apoptosis inhibitors, cytokine rescue, dose response, luminescence, retest (AID 449756); assay type: functional, cell-based; details: Rattus norvegicus;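 note: cell death triggered by IL-1 beta plus TNF-alpha plus IFN-gamma mixture; protective hits raise ATP signal compared with cytokine alone wells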
[6] = target: T2, Microphthalmia-associated transcription factor (Homo sapiens, UniProt O75030); assay: TRPM1 promoter luciferase signal decrease, dose response, MITF inhibitor project, cell-based, SK-MEL-5, cherry-picked, set 3 (AID 493073); assay type: functional
T2 sequence (O75030 whole entry): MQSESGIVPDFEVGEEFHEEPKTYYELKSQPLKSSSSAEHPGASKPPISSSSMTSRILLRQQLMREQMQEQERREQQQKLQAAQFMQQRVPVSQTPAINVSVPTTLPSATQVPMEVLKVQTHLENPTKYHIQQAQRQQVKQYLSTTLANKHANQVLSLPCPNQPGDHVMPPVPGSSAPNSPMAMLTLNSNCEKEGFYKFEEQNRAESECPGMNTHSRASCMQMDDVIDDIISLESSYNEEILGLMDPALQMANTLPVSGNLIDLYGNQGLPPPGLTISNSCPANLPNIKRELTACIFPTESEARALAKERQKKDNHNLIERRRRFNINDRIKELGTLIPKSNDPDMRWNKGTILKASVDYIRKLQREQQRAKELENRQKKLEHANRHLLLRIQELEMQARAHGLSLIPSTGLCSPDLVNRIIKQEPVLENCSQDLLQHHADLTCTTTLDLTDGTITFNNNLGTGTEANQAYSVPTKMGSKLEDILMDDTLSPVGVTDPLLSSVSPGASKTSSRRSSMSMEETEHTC

[7] = cytotoxicity toward NIH3T3 fibroblasts, dose response, counter-screen, cell-based, ATP luminescence, mouse fibroblasts (AID 2010); assay type: functional;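 note: cells exposed to compound for about 90 hours before reading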
[8] = NIH-3T3 fibroblast cytotoxicity, dose response, cytotoxicity control, cell-based, fluorescence, Alamar Blue, secondary assay (AID 2327); assay type: functional;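 note: NIH-3T3 mouse fibroblasts cultured with fluconazole at 8 µg/mL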
[9] = inhibitors of intracellular T. cruzi replication, confirmation, NIH3T3 host cells, beta-gal luminescence (AID 2044); assay type: functional, cell-based;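 note: intracellular parasites grown in NIH/3T3 mouse fibroblasts as host cells; luminescent beta-galactosidase reporter signal from transgenic T. cruzi replicating inside host cells; inhibitors lower the luminescence signal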
[10] = target: Heat shock protein HSP 90-alpha (Homo sapiens, UniProt P07900); assay type: functional, organism-based
Vero = Vero cell cytotoxicity, cytotoxicity control for flavivirus capping enzyme inhibitors (AID 588742); assay type: functional; details: Chlorocebus sabaeus
[11] = target: T3, High affinity choline transporter 1 (Homo sapiens, UniProt Q9GZV3); assay: CHT inhibitors, dose response, cell-based, 10-point CRC, membrane potential dye (AID 588401); assay type: functional;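 note: membrane potential dye fluorescence of choline-evoked depolarization via CHT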
T3 sequence (Q9GZV3 whole entry): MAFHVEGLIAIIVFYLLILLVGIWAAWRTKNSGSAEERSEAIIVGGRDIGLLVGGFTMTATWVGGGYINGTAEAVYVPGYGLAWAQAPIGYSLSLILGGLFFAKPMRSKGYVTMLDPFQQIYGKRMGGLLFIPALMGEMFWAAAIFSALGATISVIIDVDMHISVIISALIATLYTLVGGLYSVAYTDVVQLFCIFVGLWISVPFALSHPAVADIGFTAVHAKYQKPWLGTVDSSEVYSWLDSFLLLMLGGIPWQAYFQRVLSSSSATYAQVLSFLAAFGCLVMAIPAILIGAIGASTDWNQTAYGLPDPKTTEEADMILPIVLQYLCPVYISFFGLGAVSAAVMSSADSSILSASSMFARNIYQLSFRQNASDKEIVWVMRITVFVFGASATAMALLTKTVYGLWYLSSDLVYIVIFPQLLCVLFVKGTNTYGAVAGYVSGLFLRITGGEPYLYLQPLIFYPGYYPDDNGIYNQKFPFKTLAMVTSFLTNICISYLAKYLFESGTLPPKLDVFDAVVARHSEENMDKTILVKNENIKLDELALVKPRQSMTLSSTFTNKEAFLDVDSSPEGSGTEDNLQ

[12] = target: T3, High affinity choline transporter 1; assay: CHT inhibitors, dose response, cell-based, 5-point CRC, membrane potential dye (AID 504840); assay type: functional
Cytochrome P450 2C19 = Cytochrome P450 2C19 (Homo sapiens, UniProt P33261); assay: Cytochrome panel assay with activity outcomes. Panel member name: p450-cyp2c19 Compounds with AC50 equal or less than 10 uM are considered active; assay type: functional
P388/ADR = assay: cells; assay type: functional; details: Mus musculus
P388 = assay: cells; assay type: functional; details: Mus musculus
SN12K1 = assay: cells; assay type: functional; details: Homo sapiens
[13] = Luminescence Cell-Based Dose Confirmation HTS to Identify Inhibitors of Platelet Dense Granule Release. [Related pubchem assays: 1663 (Primary HTS), 1678 (Summary of Project)]; assay type: functional
Cytochrome P450 2C9 = Cytochrome P450 2C9 (Homo sapiens, UniProt P11712)
Genome polyprotein = Genome polyprotein (dengue virus type 2, UniProt P29990); assay: Dengue-2 NS5 methyltransferase inhibitors, primary screen, biochemical, confirmation dose response (AID 588689); assay type: functional
[14] = target: T4, RNA-binding protein pos-1 (Caenorhabditis elegans, UniProt G5EF15); assay: inhibitors of POS-1/mex-3 RNA binding, dose response, biochemical, fluorescence polarization (AID 1964);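 note: purified POS-1 fused to maltose binding protein made in E. coli; potency of compounds blocking POS-1 binding to fluorescent RNA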
T4 sequence (G5EF15 whole entry): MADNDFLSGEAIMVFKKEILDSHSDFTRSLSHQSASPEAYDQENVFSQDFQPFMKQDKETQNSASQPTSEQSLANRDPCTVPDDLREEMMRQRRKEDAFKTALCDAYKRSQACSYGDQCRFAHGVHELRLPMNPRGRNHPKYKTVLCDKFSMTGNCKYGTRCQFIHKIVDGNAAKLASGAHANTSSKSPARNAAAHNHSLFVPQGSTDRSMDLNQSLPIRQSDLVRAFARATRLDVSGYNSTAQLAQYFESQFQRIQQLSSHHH

Cytochrome P450 1A2 = target: T5, Cytochrome P450 1A2 (Homo sapiens, UniProt P05177);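 note: PubChem cytochrome P450 panel assay, CYP1A2 panel member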
T5 sequence (P05177 whole entry): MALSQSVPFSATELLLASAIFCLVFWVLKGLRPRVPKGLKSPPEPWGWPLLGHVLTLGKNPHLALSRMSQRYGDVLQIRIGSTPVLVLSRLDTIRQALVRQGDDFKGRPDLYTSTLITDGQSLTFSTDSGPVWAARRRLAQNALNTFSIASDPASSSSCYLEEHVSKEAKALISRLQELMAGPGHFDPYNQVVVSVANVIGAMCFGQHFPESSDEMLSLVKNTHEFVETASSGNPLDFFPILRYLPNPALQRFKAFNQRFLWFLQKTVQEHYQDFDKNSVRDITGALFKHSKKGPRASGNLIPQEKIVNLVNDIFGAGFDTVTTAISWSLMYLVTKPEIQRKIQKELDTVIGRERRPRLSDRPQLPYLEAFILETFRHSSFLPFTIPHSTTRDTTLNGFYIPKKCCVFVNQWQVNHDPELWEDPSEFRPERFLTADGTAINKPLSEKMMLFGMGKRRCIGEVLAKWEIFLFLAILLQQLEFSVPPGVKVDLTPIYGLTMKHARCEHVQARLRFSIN

[15] = target: T6, Zinc finger protein mex-5 (Caenorhabditis elegans, UniProt Q9XUB2); assay: MEX-5/TCR-2 RNA interaction inhibitors, dose response, biochemical, C. elegans, fluorescence polarization (AID 1960)
T6 sequence (Q9XUB2 whole entry): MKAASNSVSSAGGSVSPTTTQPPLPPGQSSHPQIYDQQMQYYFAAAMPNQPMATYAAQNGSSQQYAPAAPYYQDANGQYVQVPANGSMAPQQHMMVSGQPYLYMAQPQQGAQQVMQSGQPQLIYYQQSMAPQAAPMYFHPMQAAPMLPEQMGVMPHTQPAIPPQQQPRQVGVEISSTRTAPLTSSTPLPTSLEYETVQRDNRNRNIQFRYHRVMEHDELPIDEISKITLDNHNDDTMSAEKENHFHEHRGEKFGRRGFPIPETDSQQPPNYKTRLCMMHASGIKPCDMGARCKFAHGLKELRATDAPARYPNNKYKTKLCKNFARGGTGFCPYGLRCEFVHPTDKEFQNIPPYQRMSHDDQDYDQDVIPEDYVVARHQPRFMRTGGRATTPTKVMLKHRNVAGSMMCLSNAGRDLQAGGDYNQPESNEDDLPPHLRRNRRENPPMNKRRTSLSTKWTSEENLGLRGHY

Bcl-2-related protein A1 = target: T7, Bcl-2-related protein A1 (Mus musculus, UniProt Q07440); assay type: functional;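 note: confirmatory dose–response counterscreen on Bfl-1, used to check hits from a UBC13 polyubiquitin inhibitor campaign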
T7 sequence (Q07440 whole entry): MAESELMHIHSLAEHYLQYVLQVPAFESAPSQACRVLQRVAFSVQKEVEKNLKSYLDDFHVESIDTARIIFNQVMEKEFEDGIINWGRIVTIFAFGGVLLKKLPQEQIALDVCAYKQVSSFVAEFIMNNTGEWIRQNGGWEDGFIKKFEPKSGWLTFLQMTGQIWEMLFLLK

[16] = target: T8, Ubiquitin-conjugating enzyme E2 N (Homo sapiens, UniProt P61088); assay type: functional
T8 sequence (P61088 whole entry): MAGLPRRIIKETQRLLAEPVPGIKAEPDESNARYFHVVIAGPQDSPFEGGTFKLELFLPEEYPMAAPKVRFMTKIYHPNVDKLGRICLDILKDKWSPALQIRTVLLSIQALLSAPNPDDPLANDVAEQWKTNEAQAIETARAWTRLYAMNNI

[17] = target: T8, Ubiquitin-conjugating enzyme E2 N; assay type: functional; remark: listed apart in the source

Chain of ATP-dependent molecular chaperone HSP82 (C4YTQ8 whole entry): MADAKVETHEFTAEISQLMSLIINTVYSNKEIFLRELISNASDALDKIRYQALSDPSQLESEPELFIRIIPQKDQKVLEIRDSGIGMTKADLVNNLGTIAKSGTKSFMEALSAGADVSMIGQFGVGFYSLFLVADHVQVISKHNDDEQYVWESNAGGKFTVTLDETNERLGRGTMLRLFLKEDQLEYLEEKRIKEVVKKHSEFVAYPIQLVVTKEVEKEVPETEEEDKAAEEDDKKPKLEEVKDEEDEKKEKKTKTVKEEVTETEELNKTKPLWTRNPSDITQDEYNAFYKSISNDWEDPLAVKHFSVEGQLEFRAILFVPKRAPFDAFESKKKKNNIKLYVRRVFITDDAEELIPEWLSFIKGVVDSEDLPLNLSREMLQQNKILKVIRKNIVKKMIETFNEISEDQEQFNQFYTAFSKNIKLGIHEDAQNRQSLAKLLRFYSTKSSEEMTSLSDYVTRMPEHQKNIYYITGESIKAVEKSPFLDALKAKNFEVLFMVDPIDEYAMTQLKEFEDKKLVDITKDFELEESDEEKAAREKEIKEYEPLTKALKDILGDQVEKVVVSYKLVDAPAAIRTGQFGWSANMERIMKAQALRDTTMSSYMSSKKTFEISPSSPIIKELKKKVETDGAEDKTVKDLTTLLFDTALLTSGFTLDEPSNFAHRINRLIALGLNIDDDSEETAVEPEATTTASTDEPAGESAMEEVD
Chain of Cytochrome P450 2C19 (P33261 whole entry): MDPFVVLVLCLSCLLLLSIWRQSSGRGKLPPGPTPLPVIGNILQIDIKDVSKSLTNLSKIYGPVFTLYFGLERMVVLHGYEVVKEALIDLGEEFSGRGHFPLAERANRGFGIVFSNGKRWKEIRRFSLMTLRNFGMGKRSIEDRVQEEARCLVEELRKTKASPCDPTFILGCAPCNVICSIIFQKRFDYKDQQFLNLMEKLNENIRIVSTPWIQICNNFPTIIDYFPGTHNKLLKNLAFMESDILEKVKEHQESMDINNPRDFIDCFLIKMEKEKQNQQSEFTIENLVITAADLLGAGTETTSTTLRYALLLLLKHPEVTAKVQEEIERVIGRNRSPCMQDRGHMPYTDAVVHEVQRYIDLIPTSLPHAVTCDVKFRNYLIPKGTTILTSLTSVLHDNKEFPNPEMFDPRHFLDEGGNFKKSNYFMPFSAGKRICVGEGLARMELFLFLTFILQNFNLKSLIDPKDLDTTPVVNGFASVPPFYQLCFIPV
Chain of Cytochrome P450 2C9 (P11712 whole entry): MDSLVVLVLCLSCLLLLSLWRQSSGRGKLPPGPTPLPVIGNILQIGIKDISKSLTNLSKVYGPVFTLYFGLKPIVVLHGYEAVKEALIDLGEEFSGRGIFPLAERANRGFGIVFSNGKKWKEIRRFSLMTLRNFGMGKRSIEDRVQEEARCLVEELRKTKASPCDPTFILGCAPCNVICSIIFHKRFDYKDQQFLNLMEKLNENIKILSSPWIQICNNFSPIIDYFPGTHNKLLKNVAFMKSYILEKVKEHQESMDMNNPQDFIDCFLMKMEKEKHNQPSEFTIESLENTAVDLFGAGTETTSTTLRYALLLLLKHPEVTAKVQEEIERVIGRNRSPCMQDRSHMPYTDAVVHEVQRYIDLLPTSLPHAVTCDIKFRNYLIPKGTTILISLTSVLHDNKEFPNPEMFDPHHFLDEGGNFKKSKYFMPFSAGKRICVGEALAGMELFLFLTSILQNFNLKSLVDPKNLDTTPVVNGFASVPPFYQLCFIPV
Chain of Genome polyprotein (P29990 2492-3391 limits assumed): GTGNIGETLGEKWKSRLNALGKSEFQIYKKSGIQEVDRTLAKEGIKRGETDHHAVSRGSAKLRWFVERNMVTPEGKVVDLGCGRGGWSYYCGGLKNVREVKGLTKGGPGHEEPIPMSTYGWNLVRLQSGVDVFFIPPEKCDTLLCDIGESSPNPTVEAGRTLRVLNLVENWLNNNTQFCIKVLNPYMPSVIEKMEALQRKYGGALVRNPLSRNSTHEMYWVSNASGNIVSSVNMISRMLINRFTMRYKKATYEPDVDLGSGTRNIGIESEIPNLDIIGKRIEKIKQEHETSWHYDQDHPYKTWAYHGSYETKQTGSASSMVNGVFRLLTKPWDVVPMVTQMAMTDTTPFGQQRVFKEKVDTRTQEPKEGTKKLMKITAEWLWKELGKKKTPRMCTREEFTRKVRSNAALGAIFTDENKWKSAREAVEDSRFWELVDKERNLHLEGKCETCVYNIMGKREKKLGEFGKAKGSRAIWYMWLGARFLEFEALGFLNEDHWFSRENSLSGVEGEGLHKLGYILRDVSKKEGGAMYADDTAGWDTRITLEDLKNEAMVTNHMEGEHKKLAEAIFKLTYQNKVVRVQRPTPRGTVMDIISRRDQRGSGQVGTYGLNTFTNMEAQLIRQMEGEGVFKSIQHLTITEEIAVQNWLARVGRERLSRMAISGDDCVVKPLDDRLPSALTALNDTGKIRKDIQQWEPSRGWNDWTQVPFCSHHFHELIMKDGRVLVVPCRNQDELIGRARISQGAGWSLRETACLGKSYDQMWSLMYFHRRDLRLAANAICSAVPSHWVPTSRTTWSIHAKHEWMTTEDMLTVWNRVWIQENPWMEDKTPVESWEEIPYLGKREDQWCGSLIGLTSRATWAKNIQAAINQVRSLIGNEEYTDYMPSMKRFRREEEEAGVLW

Structure (SMILES): O=C(N/N=C/c1ccc(O)c2ncccc12)c1cccc(Br)c1
EC50 [1]: 0.729 µM (active) | IC50 [2]: 1.68 µM (active) | EC50 [3]: > 180 µM (inactive) | IC50 [4]: 1.67 µM (active) | EC50 [5]: 22.2 µM (active) | AC50 (INS1): 1.22 µM (active) | AC50 [6]: 7.28 µM (active) | EC50 [7]: 5.44 µM (active) | EC50 [8]: > 160 µM (inactive) | EC50 [9]: 1.66 µM (active) | AC50 [10]: 3.83 µM (active)

Structure (SMILES): Cc1nn(-c2ccccn2)c2nc(-c3cccs3)cc(C(=O)NCc3ccco3)c12
CC50 (Vero): > 40 µM (active)

IC50 [11]: 4.74 µM (active) | IC50 [12]: 1.66 µM (active)
Structure (SMILES): CN1CCN(c2oc(Cc3cccc4ccccc34)nc2C#N)CC1

Structure (SMILES): Cc1nnc(NC(=O)CSc2ncnc3c2cnn3-c2ccccc2C)s1
AC50 (Cytochrome P450 2C19): inconclusive | EC50 [1]: 0.573 µM (active) | EC50 [3]: > 180 µM (inactive) | EC50 [5]: > 150 µM (inactive) | EC50 [8]: > 150 µM (inactive)

Structure (SMILES): Nc1ncnc2c1ncn2C1OC(CO)C(O)C1O (stereo not drawn)
IC50 [11]: 0.515 µM (active) | GI50 (P388/ADR): 14.5 µM (inactive) | GI50 (P388): 16.4 µM (inactive) | GI50 (SN12K1): > 74 µM (inactive) | IC50 [12]: 0.588 µM (active) | EC50 [13]: 1.55 µM (active)

Structure (SMILES): O=C(COC(=O)c1cc(-c2ccc(Cl)s2)nc2ccccc12)NCc1ccco1
CC50 (Vero): > 40 µM (active)

AC50 (Cytochrome P450 2C9): 3.16 µM (inconclusive) | IC50 (Genome polyprotein): 26.3 µM (active) | EC50 [14]: > 300 µM (not active) | AC50 (Cytochrome P450 1A2): 7.08 µM (inconclusive) | EC50 [15]: 234 µM (inconclusive)
Structure (SMILES): COc1cc(/C=N\Nc2ccc([N+](=O)[O-])cc2)ccc1OCC(=O)Nc1ccc(C)c(C)c1
CC50 (Vero): > 40 µM (active)

IC50 (Bcl-2-related protein A1): > 20 µM (inactive) | IC50 [16]: 1.47 µM (active) | IC50 [17]: 9.62 µM (active)
Structure (SMILES): CC1(C)Cc2c(sc(NC(=O)C(=O)N3CCCC3)c2C(N)=O)CO1

IC50 (Bcl-2-related protein A1): > 20 µM (inactive) | IC50 [16]: 3.37 µM (active) | IC50 [17]: 8.84 µM (active)
Structure (SMILES): Cn1cncc1C#Cc1c(-c2ccc(S(C)(=O)=O)cc2)sc2ccccc12
